From patent US7259186B2, “Salts of fenofibric acid and pharmaceutical formulations thereof” (Abbott Laboratories, priority 2002, dated 2007)
Counter-ions that a name gives are not always drawn.

Assay: Solid state photostability (ICH light exposure, HPLC recovery)
Type: physicochemical
Conditions: light 300–800 nm under ICH Guideline conditions; lack of degradation = recovery of 95% or greater
Excerpt: The terms “photostability” and “photostable” are used interchangeably herein and refer to a lack of degradation induced by exposure to light from 300–800 nm under the conditions described in the “Guideline for the Photostability Testing of New Drug Substances and Products” (International Conference on Harmonization. Federal Register 1997; […]:27115–22, which is herein incorporated by reference) (hereinafter referred to as the “Guidelines”). As used herein, the term of “lack of degradation” means a recovery of 95% or greater on average, preferably a recovery of 97% or greater on average and most preferably, a recovery of 99% or greater on average of the novel salts of the present invention after exposure to light from 300–800 nm under the conditions described in the Guidelines described above and pursuant to the assay described in Example 28.
About 1–4 mg of each of fenofibric acid form I, fenofibric acid form II, choline, diethanolamine, tromethamine, sodium, calcium, ethanolamine, meglumine, L-lysine, and piperazine was weighed into separate 4 mL clear glass vials. […]
The vials were sealed with PTFE lined caps, and divided into 2 groups with at least three replicates in each group. […] At the end of the light exposure, all samples and controls were removed and analyzed by HPLC using the conditions shown below in Table 6. […]

| photostability (in words) | SMILES |
| --- | --- |
| not photostable | CC(C)(Oc1ccc(C(=O)c2ccc(Cl)cc2)cc1)C(=O)O [Meglumine salt, reference compound] |
| not photostable | CC(C)(Oc1ccc(C(=O)c2ccc(Cl)cc2)cc1)C(=O)O [L-Lysine salt, reference compound] |
